From patent US20210154359A1, “FIBRILLAR-PROTEIN BASED COMPOSITIONS AND USES THEREOF” (Hi-Aspect Limited, priority 2017, published 2021)
Converted amounts (≈) assume the structure as drawn. Read-outs that look alike come from different tables or passages of the source. Values belong to the compound of their own block, whether it stands above or below them.

What was measured:
[1] = Loading capacity of protein composition C with hydrophilic and hydrophobic agents; assay type: physicochemical; conditions: in protein composition C, room temperature
3T3 = assay: In Vitro 3T3 NRU Phototoxicity Test (OECD 432); assay type: cell-based; conditions: for IC50: Mus musculus, NIH3T3, light or radiation study
[2] = agent in water, in words; cited from earlier work
[3] = loading trial to date, not maximum loading
[4] = read-out: Cell Viability IC50 Minus UVA
[5] = read-out: Cell Viability IC50 Plus UVA

- Loading ([1]; maximum loading): 350 mg/g
Structure (SMILES): O=C1O[C@H]([C@@H](O)CO)C(O)=C1O [Ascorbic acid]

Structure (SMILES): O=C(O)c1ccccc1 [Benzoic acid]
- Loading [1, 3]: 10 mg/g

Structure (SMILES): Cn1c(=O)c2c(ncn2C)n(C)c1=O [Caffeine]
- Loading ([1]; maximum loading): 350 mg/g

Structure (SMILES): CN(C)CCCN1c2ccccc2Sc2ccc(Cl)cc21 [Chlorpromazine]
- Comment (phototoxicity) (3T3): Phototoxic
- Mean MPE (3T3): 0.510
- Mean PIF (3T3): 70
- IC50 (3T3; [4]): 7 µg/mL (≈ 22 µM)
- IC50 (3T3; [5]): 0.1 µg/mL

Structure (SMILES): N[C@@H](Cc1c[nH]cn1)C(=O)O [Histidine]
- Mean MPE (3T3): −0.016
- Mean PIF (3T3): 1.0
- IC50 (3T3; [4]): > 1000 µg/mL
- IC50 (3T3; [5]): > 1000 µg/mL

- Loading [1, 3]: 10 mg/g
Structure (SMILES): CN(C)c1ccc2nc3ccc(=[N+](C)C)cc-3sc2c1 [Methylene blue]

Structure (SMILES): C=C[C@H]1C[N@@]2CC[C@H]1C[C@H]2[C@H](O)c1ccnc2ccc(OC)cc12 [Quinine sulphate]
- Loading [1, 3]: 10 mg/g

- Loading [1, 3]: 1 mg/g
Structure (SMILES): CC1=C(/C=C/C(C)=C/C=C/C(C)=C/C=O)C(C)(C)CCC1 [Retinal]
- Solubility (water) [2]: Nearly insoluble

- Loading [1, 3]: 25 mg/g
Structure (SMILES): CCCCCCCCCCCCCCCC(=O)OC/C=C(C)/C=C/C=C(C)/C=C/C1=C(C)CCCC1(C)C [Retinyl palmitate]
- Solubility (water) [2]: Insoluble

Structure (SMILES): N[C@@H](Cc1c[nH]c2ccccc12)C(=O)O [Tryptophan]
- Loading ([1]; maximum loading): 350 mg/g
